What was measured:
EAAT4 = target: T1, EAAT4 (Homo sapiens, UniProt P48664); assay: Saturation binding / Scatchard analysis, EAAT4 expressed on COS-1 cells; conditions: COS-1 cell membrane preparation
T1 construct: expressed in transfected cells; host or cells: COS-1 cells (membrane preparation)
T1 sequence (P48664 1-564): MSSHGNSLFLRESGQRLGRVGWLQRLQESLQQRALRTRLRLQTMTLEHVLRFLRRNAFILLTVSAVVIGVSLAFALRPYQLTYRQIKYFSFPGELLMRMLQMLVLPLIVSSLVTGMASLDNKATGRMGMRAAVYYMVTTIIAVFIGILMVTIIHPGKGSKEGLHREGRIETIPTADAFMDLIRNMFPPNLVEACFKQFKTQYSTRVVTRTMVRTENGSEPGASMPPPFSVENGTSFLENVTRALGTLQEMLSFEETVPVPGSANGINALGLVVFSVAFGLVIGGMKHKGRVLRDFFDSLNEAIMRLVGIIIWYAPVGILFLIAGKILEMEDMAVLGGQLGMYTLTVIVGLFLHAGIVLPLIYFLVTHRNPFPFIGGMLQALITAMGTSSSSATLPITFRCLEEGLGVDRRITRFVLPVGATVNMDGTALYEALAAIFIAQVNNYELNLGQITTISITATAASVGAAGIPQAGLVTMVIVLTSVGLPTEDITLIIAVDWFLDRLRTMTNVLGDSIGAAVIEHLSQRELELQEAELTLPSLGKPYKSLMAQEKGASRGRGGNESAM
Protocol: (§1) About 20 ml of a medium contained in a T-flask (150 cm^2) was inoculated with COS-1 cells expressing EAAT which were then incubated therein until they reached confluence. After aspiration of the medium, the cells were washed with about 10 ml of phosphate buffered saline (PBS). After adding 4 ml of 0.25% trypsin/1 mM EDTA and allowing to stand for 5 minutes, 6 ml of the medium was added and the cells were collected into a 50 ml tube. Then they were centrifuged at 1200 rpm for 2 minutes and the supernatant was aspirated. The residue was thoroughly homogenized in a binding buffer (50 mM Tris-HCl (pH 7.4), 120 mM NaCl, 5 mM KCl, 2.5 mM CaCl2, 1 mM MgCl2) with the use of a Polytron homogenizer on ice. The homogenate was centrifuged at 30,000×g at 4° C. for 20 minutes. […]
(§2) Then the reaction was ceased by filtering the mixture through a GF/C filter (Whatman) having been soaked in a 0.1% poly-L-lysine hydrobromide solution for an hour followed by washing with 20 mM Tris buffer. After drying the filter, a solid scintillator MeltiLex A (PerkinElmer) was melted-on and the radioactivity was measured with a β-counter. The radioactivity of the sample free from TFB-TBOA was referred to as the total binding amount, while the radioactivity of the sample containing TFB-TBOA was referred to as the nonspecific binding amount. Then the difference was calculated as the specific binding amount.

EAAT2 [1] = target: T2, EAAT2 (Homo sapiens, UniProt P43004); assay: Saturation binding / Scatchard analysis, EAAT2 expressed on COS-1 cells; set-up: expressed in transfected cells; host or cells: COS-1 cells (membrane preparation); conditions: COS-1 cell membrane preparation
Protocol: as §1, §2

EAAT5 = target: T3, EAAT5 (Homo sapiens, UniProt O00341); assay: Saturation binding / Scatchard analysis, EAAT5 expressed on COS-1 cells; conditions: COS-1 cell membrane preparation
T3 construct: expressed in transfected cells; host or cells: COS-1 cells (membrane preparation)
Protocol: as §1, §2

human EAAT3 = target: T4, human EAAT3 (Homo sapiens, UniProt P43005); assay: Inhibition of [14C]-glutamic acid uptake by EAAT3 expressed in MDCK or COS-1 cells; format: cell-based; conditions: 1 μM L-[14C]-glutamic acid, 12 minutes
T4 construct: expressed in transfected cells
T4 sequence (P43005 1-524): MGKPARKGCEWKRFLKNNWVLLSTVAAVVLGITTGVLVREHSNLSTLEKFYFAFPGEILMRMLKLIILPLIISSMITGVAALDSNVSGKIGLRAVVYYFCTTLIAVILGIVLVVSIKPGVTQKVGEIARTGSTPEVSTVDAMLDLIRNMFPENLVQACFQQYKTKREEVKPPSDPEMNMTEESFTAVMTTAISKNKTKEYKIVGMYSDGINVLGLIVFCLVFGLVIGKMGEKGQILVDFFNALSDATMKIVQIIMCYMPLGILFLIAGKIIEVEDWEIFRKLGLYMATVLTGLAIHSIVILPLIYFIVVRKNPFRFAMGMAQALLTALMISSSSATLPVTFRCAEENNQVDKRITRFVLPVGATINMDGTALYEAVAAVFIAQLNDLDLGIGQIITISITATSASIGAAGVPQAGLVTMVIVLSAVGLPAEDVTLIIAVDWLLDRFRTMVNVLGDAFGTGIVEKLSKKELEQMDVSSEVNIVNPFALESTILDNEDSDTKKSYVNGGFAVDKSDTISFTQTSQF
Protocol: (§3) In accordance with a known method (Shimamoto, K. et al., Mol. Pharmacol. 53, 195-201, 1998; Bioorg. Med. Chem. Lett. 10, 2407-2410, 2000), the inhibitory activity was assayed as the ability to inhibit the uptake of [^14C]-glutamic acid by human EAAT2 and EAAT3 stably expressed in MDCK (Madin-Darby canine kidney) cells or transiently expressed in COS-1 cells. The glutamate uptake activity was assayed by incubating a mixture of 1 μM of L-[^14C]-glutamic acid with a sample compound at a predetermined concentration for 12 minutes, lysing the cells and then measuring the radioactivity incorporated into the cells with a liquid scintillator. The amount of uptake was expressed in percentage by referring the amount of uptake in the absence of a test compound (i.e., the buffer alone) as 100% and referring the amount of uptake in a sodium-free solution as 0%.

EAAT2 [2] = target: T2, EAAT2; assay: Inhibition of [14C]-glutamic acid uptake by EAAT2 expressed in MDCK or COS-1 cells; format: cell-based; set-up: expressed in transfected cells; conditions: 1 μM L-[14C]-glutamic acid, 12 minutes
Protocol: as §3

T2 sequence (P43004 whole entry): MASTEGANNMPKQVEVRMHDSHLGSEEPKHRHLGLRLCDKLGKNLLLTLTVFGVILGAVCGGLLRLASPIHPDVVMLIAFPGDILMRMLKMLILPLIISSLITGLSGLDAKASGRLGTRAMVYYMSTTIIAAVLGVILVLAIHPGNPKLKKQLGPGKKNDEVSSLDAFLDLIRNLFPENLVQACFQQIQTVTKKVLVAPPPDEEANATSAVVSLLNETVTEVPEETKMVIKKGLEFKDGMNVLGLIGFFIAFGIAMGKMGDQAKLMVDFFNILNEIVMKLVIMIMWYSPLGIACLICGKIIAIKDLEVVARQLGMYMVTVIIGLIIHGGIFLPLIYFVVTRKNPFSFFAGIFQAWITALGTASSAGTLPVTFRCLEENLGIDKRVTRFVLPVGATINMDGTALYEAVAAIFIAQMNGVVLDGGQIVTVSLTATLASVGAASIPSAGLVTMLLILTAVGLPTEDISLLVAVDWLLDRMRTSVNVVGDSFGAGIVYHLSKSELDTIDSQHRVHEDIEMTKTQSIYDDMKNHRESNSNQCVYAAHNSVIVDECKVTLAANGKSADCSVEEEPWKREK
T3 sequence (O00341 whole entry, species assumed): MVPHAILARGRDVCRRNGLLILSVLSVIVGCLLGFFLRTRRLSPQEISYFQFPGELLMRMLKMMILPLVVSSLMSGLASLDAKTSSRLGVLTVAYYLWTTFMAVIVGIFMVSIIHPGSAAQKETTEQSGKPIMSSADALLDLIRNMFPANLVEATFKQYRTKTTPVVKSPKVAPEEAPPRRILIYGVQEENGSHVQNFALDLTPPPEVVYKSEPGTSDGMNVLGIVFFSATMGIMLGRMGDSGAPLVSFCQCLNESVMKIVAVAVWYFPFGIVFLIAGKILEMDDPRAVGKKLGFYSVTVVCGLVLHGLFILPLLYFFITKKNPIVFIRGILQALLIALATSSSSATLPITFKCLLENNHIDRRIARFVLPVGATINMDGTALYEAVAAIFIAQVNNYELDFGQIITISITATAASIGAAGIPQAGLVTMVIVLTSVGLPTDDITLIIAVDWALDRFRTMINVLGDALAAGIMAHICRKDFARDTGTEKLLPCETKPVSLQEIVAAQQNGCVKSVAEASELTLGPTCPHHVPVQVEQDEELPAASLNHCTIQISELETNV

Kd (EAAT4) | Kd (EAAT2 [1]) | Kd (EAAT5) | IC50 (human EAAT3) | IC50 (EAAT2 [2]) | Compound
13 nM | 26 nM | 30 nM | – | – | [3H]CC([3H])c1ccc(C(=O)Nc2cccc(CO[C@H](C(=O)O)[C@H](N)C(=O)O)c2)cc1 (stereo partly drawn) [(^3H)Et-BzA-TBOA]
– | – | – | 56 ± 1.8 nM | 4.8 ± 0.32 nM | N[C@H](C(=O)O)[C@H](OCc1cccc(NC(=O)c2ccc(I)cc2)c1)C(=O)O [I-BzA-TBOA, (2S,3S)-3-[3-(4-iodobenzoylamino)benzyloxy]aspartic acid]
– | – | – | 1300 ± 120 nM | 1300 ± 120 nM | NC(C(=O)O)C(OCc1ccccc1)C(=O)O [L-TBOA, threo-β-benzyloxyaspartic acid, reference compound]
– | – | – | 28 ± 1.8 nM | 1.9 ± 0.1 nM | N[C@H](C(=O)O)[C@H](OCc1cccc(NC(=O)c2ccc(C(F)(F)F)cc2)c1)C(=O)O [TFB-TBOA, reference compound]
